Consider 14 compounds from patent publication US20260137698A1, “CYCLIN-DEPENDENT KINASE 7 INHIBITORS” (JOINT STOCK COMPANY «BIOCAD», priority 2022, published 2026).

Structures are written as SMILES. Where two headings read alike, the source gives them in different places.

Data set [1] is described as follows: Microsomal stability in human liver microsomes (HLM). The format is in vitro ADME. The settings on record: 1 μM test compound. As for the experimental part: The procedure for investigating the metabolism of selected compounds was carried out in microsomal fractions of the liver (of rats, mice, humans) in the presence of a phase I metabolism cofactor (NADPH).
The rate of enzymatic decomposition of the compound in liver microsomes in in vitro analysis was determined by keeping a reaction mixture comprising 0.5 mg/ml of pooled human, rat or mouse liver microsomes, 1 μM test compound, 1.5 mM […] (Carbosynth, UK, cat. no. NN108711101) and 1.5 mM magnesium chloride in 0.1 M sodium phosphate buffer (pH 7.4) in a solid-state thermostat at 37° C. (XenoTech, USA, order no. H2610, cat. no. R1000, cat. no. M1000). Incubation was carried out in three replicates.
To determine the stability of compounds under sample preparation conditions, an aliquot in two replicates with the test compound and a microsomal fraction devoid of the NADPH cofactor, which was incubated for 40 minutes at 37° C.
Reactions were stopped at 0, 10, 20, 30 and 40 min time points by way of adding an ice mixture of acetonitrile:methanol (3:1) comprising an internal standard.
Samples were then centrifuged to remove the precipitated protein, supernatants were analyzed using HPLC-MS/MS to determine in vitro clearance (CLint) of the compounds. The Agilent 6410 mass spectrometer (Agilent, USA) combined with the Agilent 1260 Infinity II HPLC liquid chromatograph (Agilent, USA) and a cooling autosampler controlled by MassHunter software (Agilent, USA) was used as an HPLC-MS/MS system. Chromatographic analysis was performed on a C18 reversed-phase HPLC column (Agilent, Waters or equivalent) in a gradient elution mode in a system of mobile phases: 0.1% formic acid in water/0.1% formic acid in acetonitrile, flow rate: 0.5 ml/min, column T=35° C. Mass spectrometric detection was performed with electrospray ionization in multiple reaction monitoring mode. Precursor ions, fragment ions and collision energies for each substance were selected experimentally.
A graph of dependence of the logarithmic ratio between substance's peak area and internal standard's peak area vs time was built. The dependent coefficient of this line corresponded to the elimination rate constant k, on the basis of which the in vitro clearance CLint was calculated:
Based on resulting in vitro clearance CLint values, the microsomal stability of the selected compounds for humans, rats and mice was concluded.
On the technique in general: Liver microsomes are vesicles of endoplasmic reticulum, rich in cytochrome P450 enzymes.

The target of data set [2] is CDK2/Cyclin A (Homo sapiens, UniProt P24941). Briefly: Inhibition of CDK2/Cyclin A kinase activity (ADP-Glo). Format: biochemical. The essentials:
(§1)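 ADP-Glo luminescence quantified ATP consumption after a 40-60 minute, 25° C. reaction with ATP plus CDKtide, Histone H1 or PDKtide, following a 10-minute compound–kinase preincubation in DTT-supplemented kinase buffer A. Compounds spanned 11 concentrations from 50 μM in 4-fold dilutions; IC50 fitted to a four-parameter model.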
On the technique in general: ADP-Glo first removes unused ATP, then detects ADP through luciferase.

The nature of data set [3]: General cytotoxicity on primary differentiated HepaRG cells (72 h). The format is cell-based. Conditions: human, general toxicity, mean value from several measurements. A digest of the protocol:
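Test compounds spanning 200 μM to 0.2 nM were incubated for 72 hours with primary differentiated HepaRG cells. Cells had been kept one week in supplemented hepatic medium and seeded the night before at 25×10^3 per well, and viability was then measured.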

For data set [4], the target named is CDK9/Cyclin K (Homo sapiens, UniProt P50750). Description: Inhibition of CDK9/Cyclin K kinase activity (ADP-Glo). Format: biochemical. The essentials:
as §1

Setting [5] is: mean of multiple measurement series, ATP 50 μM, read-out: CDK2/Cyclin A IC50.
Where [6] appears, read: mean value from several measurements, read-out: IC50 CDK2/Cyclin A.
Setting [7] is: mean of multiple measurement series, ATP 50 μM, read-out: CDK9/Cyclin K IC50.
Where [8] appears, read: mean value from several measurements, read-out: IC50 CDK9/Cyclin K.

CDK9/Cyclin K, sequence (P50750 whole entry): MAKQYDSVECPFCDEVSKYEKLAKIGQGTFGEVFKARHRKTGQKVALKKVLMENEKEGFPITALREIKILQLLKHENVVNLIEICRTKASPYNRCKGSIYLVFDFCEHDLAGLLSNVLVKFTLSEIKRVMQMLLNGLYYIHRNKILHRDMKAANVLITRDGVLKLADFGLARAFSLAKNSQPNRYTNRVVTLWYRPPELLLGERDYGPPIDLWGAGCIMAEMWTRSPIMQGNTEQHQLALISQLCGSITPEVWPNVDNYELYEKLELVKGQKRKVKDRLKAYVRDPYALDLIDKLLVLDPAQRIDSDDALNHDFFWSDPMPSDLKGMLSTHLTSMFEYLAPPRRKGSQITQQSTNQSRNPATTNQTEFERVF
CDK9/Cyclin K, sequence (O75909 whole entry partner): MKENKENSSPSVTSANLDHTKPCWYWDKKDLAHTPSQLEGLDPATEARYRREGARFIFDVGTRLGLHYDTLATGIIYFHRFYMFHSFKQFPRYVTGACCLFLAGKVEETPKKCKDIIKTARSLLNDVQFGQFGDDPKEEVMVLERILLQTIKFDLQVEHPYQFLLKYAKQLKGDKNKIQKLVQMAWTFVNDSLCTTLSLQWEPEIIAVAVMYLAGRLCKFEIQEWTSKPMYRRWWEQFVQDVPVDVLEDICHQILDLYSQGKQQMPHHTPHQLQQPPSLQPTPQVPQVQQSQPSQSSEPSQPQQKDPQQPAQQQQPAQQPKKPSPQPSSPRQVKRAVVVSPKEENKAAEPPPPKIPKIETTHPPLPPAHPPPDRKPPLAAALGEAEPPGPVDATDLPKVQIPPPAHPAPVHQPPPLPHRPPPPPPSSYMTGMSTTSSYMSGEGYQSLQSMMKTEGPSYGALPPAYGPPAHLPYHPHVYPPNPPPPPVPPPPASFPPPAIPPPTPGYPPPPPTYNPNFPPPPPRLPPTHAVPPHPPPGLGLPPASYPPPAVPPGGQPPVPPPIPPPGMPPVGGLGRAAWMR

In the case of `O=c1c2[nH]cc(-c3nc(N[C@H]4CCCNC4)ncc3C(F)(F)F)c2ccn1Cc1ccccc1` [CDK7_961, 6-benzyl-3-(2-{[(3S)-piperidin-3-yl]amino}-5-(trifluoromethyl)py-rimidin-4-yl)-1H,6H,7H-pyrrolo[2,3-c]pyridin-7-one], the “In vitro clearance CLint (HLM)” value in data set [1] was “A (Clint < 20 μl/(min · mg of protein))”. Also, the IC50 was 3.7 µM in data set [2] (setting [5]), over 0.2 µM in data set [2] (setting [6]), 69 nM in data set [4] (setting [7]) and 50 to 200 nM in data set [4] (setting [8]). In data set [3], this compound showed a CC50 at 72 h of 100 to 500 nM.

Turning to `CC(C)N1CCCc2c(-c3nc(N[C@H]4CCC(C)(C)NC4)ncc3C(F)(F)F)c[nH]c2C1=O` [CDK7_1229, 3-(2-{[(3S)-6,6-dimethylpiperidin-3-yl]amino}-5-(trifluoromethyl)py-rimidin-4-yl)-7-(propan-2-yl)-1H,4H,5H,6H,7H, 8H-pyrrolo[2,3-c]azepin-8-one], the “In vitro clearance CLint (HLM)” value in data set [1] is listed as “B (50 μl/(min · mg of protein) > Clint > 20 μl/(min · mg of protein))”. Besides, the IC50 is 22.9 µM in data set [2] (setting [5]), over 0.2 µM in data set [2] (setting [6]), 485 nM in data set [4] (setting [7]) and over 200 nM in data set [4] (setting [8]). Also, the CC50 at 72 h in data set [3] was over 2000 nM.

In the case of `CC(C)N1CCCc2c(-c3nc(N[C@H]4CCC5(CC5)NC4)ncc3C(F)(F)F)c[nH]c2C1=O` [CDK7_1277, 3-(2-{[(6S)-4-azaspiro[2.5]octan-6-yl]amino}-5-(trifluoromethyl)py-rimidin-4-yl)-7-(propan-2-yl)-1H,4H,5H,6H,7H, 8H-pyrrolo[2,3-c]azepin-8-one], the “In vitro clearance CLint (HLM)” value in data set [1] is “B (50 μl/(min · mg of protein) > Clint > 20 μl/(min · mg of protein))”. The IC50 in data set [2] (setting [5]) was 14.3 µM; in data set [2] (setting [6]), over 0.2 µM; in data set [4] (setting [7]) it was 442 nM; in data set [4] (setting [8]) it was over 200 nM. The CC50 at 72 h in data set [3] was over 2000 nM.

Consider `Cn1cc(-n2ccc3c(-c4nc(N[C@H]5CCCNC5)ncc4C(F)(F)F)c[nH]c3c2=O)cn1` [CDK7_959, 6-(1-methyl-1H-pyrazol-4-yl)-3-(2-{[(3S)-piperidin-3-yl]amino}-5-(trifluoromethyl)py-rimidin-4-yl)-1H,6H,7H-pyrrolo[2,3-c]pyridin-7-one], for which, in data set [1], the “In vitro clearance CLint (HLM)” value was “A (Clint < 20 μl/(min · mg of protein))”. Also, the IC50 was 5.26 µM in data set [2] (setting [5]), over 0.2 µM in data set [2] (setting [6]), 106 nM in data set [4] (setting [7]) and 50 to 200 nM in data set [4] (setting [8]). This compound returned a CC50 at 72 h in data set [3] of over 2000 nM.

Regarding `Cn1cc(N2CCCc3c(-c4nc(N[C@H]5CCC(C)(C)NC5)ncc4C(F)(F)F)c[nH]c3C2=O)cn1` [CDK7_1122, 3-(2-{[(3S)-6,6-dimethylpiperidin-3-yl]amino}-5-(trifluoromethyl)py-rimidin-4-yl)-7-(1-methyl-1H-pyrazol-4-yl)-1H,4H,5H,6H,7H, 8H-pyrrolo[2,3-c]azepin-8-one], in data set [1], the “In vitro clearance CLint (HLM)” value was “A (Clint < 20 μl/(min · mg of protein))”. Besides, in data set [3], the CC50 at 72 h was over 2000 nM. For the same compound, in data set [4] (setting [8]), the IC50 is over 200 nM.

With `O=C1c2[nH]cc(-c3nc(N[C@H]4CCCNC4)ncc3C(F)(F)F)c2CCCN1c1ccccn1` [CDK7_1176, 3-(2-{[(3S)-piperidin-3-yl]amino}-5-(trifluoromethyl)py-rimidin-4-yl)-7-(pyridin-2-yl)-1H,4H,5H,6H,7H, 8H-pyrrolo[2,3-c]azepin-8-one], the “In vitro clearance CLint (HLM)” value in data set [1] is recorded as “A (Clint < 20 μl/(min · mg of protein))”. The CC50 at 72 h in data set [3] is over 2000 nM.

As to `O=C1c2[nH]cc(-c3nc(NC4CCCNC4)ncc3C(F)(F)F)c2CCCN1c1nccs1` (centres unmarked) [CDK7_1172], the “In vitro clearance CLint (HLM)” value in data set [1] is listed as “B (50 μl/(min · mg of protein) > Clint > 20 μl/(min · mg of protein))”. The IC50 in data set [2] (setting [6]) is over 0.2 µM; in data set [4] (setting [8]), over 200 nM. In data set [3], the CC50 at 72 h is over 2000 nM.

In the case of `O=C1c2[nH]cc(-c3nc(N[C@H]4CCC5(CC5)NC4)ncc3C(F)(F)F)c2CCCN1C1CC1` [CDK7_1276, 3-(2-{[(6S)-4-azaspiro[2.5]octan-6-yl]amino}-5-(trifluoromethyl)py-rimidin-4-yl)-7-cyclopropyl-1H,4H,5H,6H,7H, 8H-pyrrolo[2,3-c]azepin-8-one], in data set [1], the “In vitro clearance CLint (HLM)” value is “B (50 μl/(min · mg of protein) > Clint > 20 μl/(min · mg of protein))”. Further, the IC50 was 6.22 µM in data set [2] (setting [5]), over 0.2 µM in data set [2] (setting [6]), 296 nM in data set [4] (setting [7]) and over 200 nM in data set [4] (setting [8]). In data set [3], this compound had a CC50 at 72 h of over 2000 nM.

Consider `O=C1c2[nH]cc(-c3nc(NC4CCCNC4)ncc3C(F)(F)F)c2CCCN1C1CC1` (centres unmarked) [CDK7_1188], for which, in data set [1], the “In vitro clearance CLint (HLM)” value is recorded as “A (Clint < 20 μl/(min · mg of protein))”. The IC50 in data set [2] (setting [6]) was over 0.2 µM; in data set [4] (setting [8]) it was over 200 nM. For the same compound, the CC50 at 72 h in data set [3] is over 2000 nM.

Consider `CC1(C)CC[C@H](Nc2ncc(C(F)(F)F)c(-c3c[nH]c4c3CCCN(CC3CC3)C4=O)n2)CN1` [CDK7_1227, 7-(cyclopropylmeth-yl)-3-(2-{[(3S)-6,6-dimethylpiperidin-3-yl]amino}-5-(trifluoromethyl)py-rimidin-4-yl)-1H,4H,5H,6H,7H, 8H-pyrrolo[2,3-c]azepin-8-one], for which the IC50 was over 0.2 µM in data set [2] (setting [6]) and over 200 nM in data set [4] (setting [8]). Also, the CC50 at 72 h in data set [3] is over 2000 nM.

On to `Cn1cc(N2CCCc3c(-c4nc(N[C@H]5CCCNC5)ncc4C(F)(F)F)c[nH]c3C2=O)cn1` [CDK7_955, 7-(1-methyl-1H-pyrazol-4-yl)-3-(2-{[(3S)-piperidin-3-yl]amino}-5-(trifluoromethyl)py-rimidin-4-yl)-1H,4H,5H,6H,7H, 8H-pyrrolo[2,3-c]azepin-8-one], for which, in data set [1], the “In vitro clearance CLint (HLM)” value was “A (Clint < 20 μl/(min · mg of protein))”. Besides, the IC50 was over 0.2 µM in data set [2] (setting [6]) and over 200 nM in data set [4] (setting [8]). In data set [3], this compound yielded a CC50 at 72 h of over 2000 nM.

`CN1CCCc2c(-c3nc(N[C@H]4CCCNC4)ncc3C(F)(F)F)c[nH]c2C1=O` [CDK7_953, 7-methyl-3-(2-{[(3S)-piperidin-3-yl]amino}-5-(trifluoromethyl)py-rimidin-4-yl)-1H,4H,5H,6H,7H, 8H-pyrrolo[2,3-c]azepin-8-one]: in data set [1], the “In vitro clearance CLint (HLM)” value is on record as “A (Clint < 20 μl/(min · mg of protein))”. The IC50 in data set [2] (setting [5]) was 5.83 µM; in data set [2] (setting [6]), over 0.2 µM; in data set [4] (setting [7]) it was 60 nM; in data set [4] (setting [8]), 50 to 200 nM. The CC50 at 72 h in data set [3] fell in the range of 500 to 2000 nM.

Consider `Cn1cc(-n2ccc3c(-c4nc(N[C@H]5CCC(C)(C)NC5)ncc4C(F)(F)F)c[nH]c3c2=O)cn1` [CDK7_1123, 3-(2-{[(3S)-6,6-dimethylpiperidin-3-yl]amino}-5-(trifluoromethyl)py-rimidin-4-yl)-6-(1-methyl-1H-pyrazol-4-yl)-1H,6H,7H-pyrrolo[2,3-c]pyridin-7-one], for which, in data set [1], the “In vitro clearance CLint (HLM)” value is reported as “A (Clint < 20 μl/(min · mg of protein))”. The IC50 in data set [2] (setting [5]) is 35.2 µM; in data set [2] (setting [6]) it was over 0.2 µM; in data set [4] (setting [7]), 265 nM; in data set [4] (setting [8]), over 200 nM. Also, in data set [3], the CC50 at 72 h was over 2000 nM.

Regarding `CCN1CCCc2c(-c3nc(N[C@H]4CCC(C)(C)NC4)ncc3C(F)(F)F)c[nH]c2C1=O` [CDK7_1259, 3-(2-{[(3S)-6,6-dimethylpiperidin-3-yl]amino}-5-(trifluoromethyl)py-rimidin-4-yl)-7-ethyl-1H,4H,5H,6H,7H, 8H-pyrrolo[2,3-c]azepin-8-one], the IC50 is over 0.2 µM in data set [2] (setting [6]) and over 200 nM in data set [4] (setting [8]). The CC50 at 72 h in data set [3] is over 2000 nM.

What is called CC50 is the concentration at which the toxic effect on the cells reaches its halfway point. Low values mean greater toxicity to the cells, high ones lower toxicity to the cells.
